Experimental data reported in patent US20170349879A1, “METHOD FOR CULTURING NORMAL CELLS AND ODONTOMA CELLS CONTAINED IN ORAL TISSUE” (CHIBA UNIVERSITY, priority 2014, published 2017).

What was measured:
Format in all cases: cell-based, human
amylase = test: Protein expression analysis of amylase by immunocytological fluorescent staining; settings: salivary gland cells repeatedly subcultured in Rock inhibitor-containing medium; FIG. 3
Description: (i) Salivary gland cells cultured on glass slides were fixed by being treated for 10 minutes with 4% paraformaldehyde (WaKo). (ii) The fixed cells were washed three times with Tris-buffered saline (TBS: Sigma-Aldrich). (iii) The fixed cells were permeated with 0.5% Triton X-100 (WaKo) for 15 minutes. (iv) The fixed cells were reacted for 30 minutes with TBS containing 1% bovine serum albumin (Sigma-Aldrich). (v) The fixed cells were washed three times with TBS. (vi) A primary antibody (anti-goat amylase (Santa Cruz)) was mixed with TBS and reacted at a concentration of 1:200 at 4° C. for 16 hours. (vii) The cells were washed three times with TBS. (viii) Anti-goat Alexa Floor 647 (Millipore) was mixed with phosphate-buffered physiological saline and reacted at a concentration of 1:200 at room temperature for 1 hour. (ix) The cells were washed three times with TBS. (x) The cells were mounted with DAPI-containing mounting medium (DaKo). (xi) The cells were observed under a confocal microscope (FV10i-LIV: OLYMPUS).

[1] = system: telomerase reverse transcriptase (TERT); test: Quantitative RT-PCR of TERT (immortalization) in salivary gland cells; settings: salivary gland cells in Rock inhibitor-containing medium; FIG. 6B
Description: Primary cultured salivary gland cells were cultured in a medium containing a Rock inhibitor and analyzed for their proliferation by Western blotting of proliferating cell nuclear antigen (PCNA: Santa Cruz) and for their apoptosis by Western blotting of caspase-3 (CST). For analysis of their immortalization, the expression of telomerase reverse transcriptase (TERT) was analyzed by quantitative RT-PCR assay. Quantitative RT-PCR of TERT was conducted in the same manner as shown in (2.1) above. The primers used are as shown below. The universal probe used was #19.

[2] = system: cancer-associated fibroblasts (CAFs); test: Cell culture of cancer-associated fibroblasts using a Rho kinase inhibitor (cell morphology); settings: inhibitor-containing medium (10 μM); passage 7 with inhibitor vs passage 1 without; FIG. 14
Description: Odontoma cells, oral mucosal epithelial cells, fibroblasts, and cancer-associated fibroblasts (CAFs) (i) Patient-derived cells for use as a source material were taken in a required amount as described above. (ii) The cells were washed three times with phosphate-buffered physiological saline (PBS) (supplemented with 10 units/ml of penicillin and 100 μg/ml of streptomycin: Sigma-Aldrich). (iii) The cells were cut into small pieces with sterilized iris scissors and a surgical knife (No. 11). (iv) After addition of trypsin (TrypLE Select Enzyme, Gibco, Code No. A12177-01), the cells were shaken at 37° C. for 30 minutes. (v) The cells were mixed with Dulbecco's modified Eagle medium (DMEM: Sigma-Aldrich) (supplemented with 10% fetal bovine serum: Nichirei Bioscience Inc., Japan, 10 units/ml of penicillin and 100 μg/ml of streptomycin), and centrifugation (at 1000 rpm for 5 minutes) was repeated three times. (vi) The cells were mixed with DMEM (supplemented with 10% fetal bovine serum, 10 units/ml of penicillin, 100 μg/ml of streptomycin, 10 μM of the Rock kinase inhibitor and 0.3 μM of L-ascorbic acid 2-phosphate: Sigma-Aldrich) (DMEM+) and then seeded into collagen type I-coated cell culture dishes (IWAKI). (vii) The cells were washed with PBS once every three days to replace the above medium. (viii) The cultured cells were subcultured at 80% confluency. […]

Structure (SMILES): CC(N)[C@H]1CC[C@H](C(=O)Nc2ccncc2)CC1 (stereo partly drawn) [Rock inhibitor, (R)-(+)-trans-N-(4-pyridyl)-4-(1-aminoethyl)-cyclohexanecarboxamide]
- protein expression of amylase (amylase): significantly high
- TERT expression [1]: no difference was also observed
- cell morphology of cancer-associated fibroblasts on repeated subculture [2]: maintain their cell morphology even when repeatedly subcultured
